Like-named read-outs stand apart in the source and are kept apart here.
Experiments:
Assay in all cases: Glasshouse assay for herbicidal activity (pre- and post-emergence), percentage phytotoxicity
Format in all cases: in vivo
[1] = test system: Alopecurus myosuroides (ALOMY); conditions: Rate 250 g/ha, 100%=total damage, 0%=no damage; for pest or weed control at 250 g/ha: Alopecurus myosuroides
Description: (§1) Test—Glasshouse Assay for Herbicidal Activity
(§2) Seeds of a variety of monocotyledonous and dicotyledonous test plants are sown in standard soil in pots. The plants are cultivated for one day (for pre-emergence (PRE)) or for about 12 days (for post-emergence (POST)) under controlled conditions in a glasshouse (warm climate species at 24/18° C., cool climate species at 20/16° C., both at day/night; 16 hours light; 65% humidity).
(§3) The test plants are then grown on, in a glasshouse (greenhouse) under controlled conditions (warm climate species at 24/18° C., cool climate species at 20/16° C., both at day/night; 16 hours light; 65% humidity) and are watered twice daily. 15 days after application of the test herbicide (15 DAA) (for post-emergence), and 20 days after application of the test herbicide (20 DAA) (for pre-emergence), the test plants are evaluated visually, and an assessed percentage phytotoxicity score is given for each herbicidal application on each plant species (with 100%=total damage to plant; 0%=no damage to plant).
(§4) The plant species tested are as follows: Alopecurus myosuroides (ALOMY), Avena fatua (AVEFA), Lolium perenne (LOLPE), Echinochloa crus-galli (ECHCG).

[2] = test system: Avena fatua (AVEFA); conditions: Rate 250 g/ha, 100%=total damage, 0%=no damage; for pest or weed control at 250 g/ha: Avena fatua
Description: as §1, §2, §3, §4

[3] = test system: Echinochloa crus-galli (ECHCG); conditions: Rate 250 g/ha, 100%=total damage, 0%=no damage; for pest or weed control at 250 g/ha: Echinochloa crus-galli
Description: as §1, §2, §3, §4

[4] = test system: Lolium perenne (LOLPE); conditions: Rate 250 g/ha, 100%=total damage, 0%=no damage; for pest or weed control at 250 g/ha: Lolium perenne
Description: as §1, §2, §3, §4

[5] = post-emergence, 360 h, post-emergence, assessed visually 15 DAA, read-out: Post-emergence herbicidal activity (percentage phytotoxicity) ALOMY POST
[6] = pre-emergence, 480 h, pre-emergence, assessed visually 20 DAA, read-out: Pre-emergence herbicidal activity (percentage phytotoxicity) ALOMY PRE
[7] = post-emergence, 360 h, post-emergence, assessed visually 15 DAA, read-out: Post-emergence herbicidal activity (percentage phytotoxicity) AVEFA POST
[8] = pre-emergence, 480 h, pre-emergence, assessed visually 20 DAA, read-out: Pre-emergence herbicidal activity (percentage phytotoxicity) AVEFA PRE
[9] = post-emergence, 360 h, post-emergence, assessed visually 15 DAA, read-out: Post-emergence herbicidal activity (percentage phytotoxicity) ECHCG POST
[10] = pre-emergence, 480 h, pre-emergence, assessed visually 20 DAA, read-out: Pre-emergence herbicidal activity (percentage phytotoxicity) ECHCG PRE
[11] = post-emergence, 360 h, post-emergence, assessed visually 15 DAA, read-out: Post-emergence herbicidal activity (percentage phytotoxicity) LOLPE POST
[12] = pre-emergence, 480 h, pre-emergence, assessed visually 20 DAA, read-out: Pre-emergence herbicidal activity (percentage phytotoxicity) LOLPE PRE
[13] = post-emergence, assessed visually 15 DAA
[14] = pre-emergence, assessed visually 20 DAA

Row | SMILES | pest or weed control at 250 g/ha [1, 5] | pest or weed control at 250 g/ha [1, 6] | pest or weed control at 250 g/ha [2, 7] | pest or weed control at 250 g/ha [2, 8] | pest or weed control at 250 g/ha [3, 9] | pest or weed control at 250 g/ha [3, 10] | pest or weed control at 250 g/ha [4, 11] | pest or weed control at 250 g/ha [4, 12] | Post-emergence herbicidal activity (percentage phytotoxicity) ALOMY POST [1, 13] | Pre-emergence herbicidal activity (percentage phytotoxicity) ALOMY PRE [1, 14] | Post-emergence herbicidal activity (percentage phytotoxicity) AVEFA POST [2, 13] | Pre-emergence herbicidal activity (percentage phytotoxicity) AVEFA PRE [2, 14] | Post-emergence herbicidal activity (percentage phytotoxicity) ECHCG POST [3, 13] | Pre-emergence herbicidal activity (percentage phytotoxicity) ECHCG PRE [3, 14] | Post-emergence herbicidal activity (percentage phytotoxicity) LOLPE POST [4, 13] | Pre-emergence herbicidal activity (percentage phytotoxicity) LOLPE PRE [4, 14]
1 | Cc1cc(-c2cnc(Cl)cn2)cc(C)c1C1C(=O)CC(CC(=O)NCc2cccs2)C1=O (centres unmarked) [Compound A148] | 70% | 70% | 100% | 80% | 100% | 100% | 90% | 80% |  |  |  |  |  |  |  | 
2 | Cc1cc(-c2cnc(Cl)cn2)cc(C)c1C1C(=O)CC(CC(=O)NCc2cccc(C(F)(F)F)c2)C1=O (centres unmarked) [Compound A149] |  |  |  |  |  |  |  |  | 100% | 80% | 100% | 100% | 100% | 100% | 100% | 90%
3 | Cc1cc(-c2ncc(F)cc2Cl)cc(C)c1C1C(=O)CC(CC(=O)NCc2cccs2)C1=O (centres unmarked) [Compound A150] | 70% | 70% | 90% | 50% | 90% | 90% | 70% | 80% |  |  |  |  |  |  |  | 
4 | Cc1cc(-c2ccc(Cl)nn2)cc(C)c1C1C(=O)CC(CC(=O)NCc2cccs2)C1=O (centres unmarked) [Compound A151] | 40% | 40% | 50% | 70% | 70% | 100% | 40% | 80% |  |  |  |  |  |  |  | 
5 | Cc1cnc(CNC(=O)CC2CC(=O)C(c3c(C)cc(-c4ncc(Cl)cc4F)cc3C)C2=O)cn1 (centres unmarked) [Compound A152] | 90% | 70% | 100% | 100% | 90% | 100% | 100% | 90% |  |  |  |  |  |  |  | 
6 | Cc1cc(-c2ccc(C(F)(F)F)cn2)cc(C)c1C1C(=O)CC(CC(=O)NCc2cccc(C(F)(F)F)c2)C1=O (centres unmarked) [Compound A153] | 90% | 30% | 90% | 70% | 90% | 90% | 70% | 60% |  |  |  |  |  |  |  | 
7 | Cc1cc(-c2cc(Cl)ccn2)cc(C)c1C1C(=O)CC(CC(=O)NCc2cccc(C(F)(F)F)c2)C1=O (centres unmarked) [Compound A154] | 80% | 50% | 90% | 60% | 100% | 80% | 70% | 80% |  |  |  |  |  |  |  | 
8 | Cc1cc(-c2ccc(Cl)nn2)cc(C)c1C1C(=O)CC(CC(=O)NCc2ncccc2Cl)C1=O (centres unmarked) [Compound A155] | 50% | 40% | 70% | 100% | 90% | 70% | 70% | 70% |  |  |  |  |  |  |  | 
9 | Cc1cc(-c2ccc(C#N)cn2)cc(C)c1C1C(=O)CC(CC(=O)NCc2cccs2)C1=O (centres unmarked) [Compound A156] | 70% | 60% | 80% | 70% | 100% | 100% | 80% | 80% |  |  |  |  |  |  |  | 
10 | Cc1cnc(CNC(=O)CC2CC(=O)C(c3c(C)cc(-c4ncc(F)cn4)cc3C)C2=O)cn1 (centres unmarked) [Compound A157] | 80% | 60% | 90% | 70% | 100% | 90% | 90% | 70% |  |  |  |  |  |  |  | 
11 | Cc1ccc(-c2cc(C)c(C3C(=O)CC(CC(=O)NCc4cccc(C(F)(F)F)c4)C3=O)c(C)c2)nc1 (centres unmarked) [Compound A158] | 70% | 20% | 70% | 20% | 90% | 80% | 80% | 60% |  |  |  |  |  |  |  | 
12 | Cc1cc(C)c(C2C(=O)CC(CC(=O)N(C)CC(C)C)C2=O)c(C)c1 (centres unmarked) [Compound A159] | 70% | 60% | 50% | 20% | 80% | 90% | 90% | 90% |  |  |  |  |  |  |  | 
13 | CCN(C)C(=O)CC1CC(=O)C(c2c(C)cc(C)cc2C)C1=O (centres unmarked) [Compound A160] | 70% | 70% | 90% | 80% | 90% | 100% | 100% | 100% |  |  |  |  |  |  |  | 
14 | Cc1cc(C)c(C2C(=O)CC(CC(=O)N(C)C(C)C)C2=O)c(C)c1 (centres unmarked) [Compound A161] | 70% | 20% | 30% | 30% | 80% | 100% | 90% | 100% |  |  |  |  |  |  |  | 
15 | Cc1cc(C)c(C2C(=O)CC(CC(=O)N3CCCC3)C2=O)c(C)c1 (centres unmarked) [Compound A162] | 90% | 70% | 90% | 70% | 90% | 100% | 100% | 100% |  |  |  |  |  |  |  | 
16 | Cc1cc(C)c(C2C(=O)CC(CC(=O)N3CCSCC3)C2=O)c(C)c1 (centres unmarked) [Compound A163] | 30% | 10% | 30% | 30% | 70% | 70% | 60% | 60% |  |  |  |  |  |  |  | 
17 | Cc1cc(C)c(C2C(=O)CC(C(C)C(=O)NC(C)(C)C)C2=O)c(C)c1 (centres unmarked) [Compound A164] | 70% | 70% | 70% | 10% | 70% | 70% | 60% | 60% |  |  |  |  |  |  |  | 
18 | Cc1cc(C)c(C2C(=O)CC(C(C)C(=O)NCc3cccs3)C2=O)c(C)c1 (centres unmarked) [Compound A165] | 60% | 60% | 80% | 0% | 90% | 100% | 80% | 70% |  |  |  |  |  |  |  | 
19 | Cc1cc(C)c(C2C(=O)CC(C(C)C(=O)NCc3cccc(C(F)(F)F)c3)C2=O)c(C)c1 (centres unmarked) [Compound A166] | 40% | 40% | 70% | 20% | 90% | 70% | 70% | 70% |  |  |  |  |  |  |  | 
